From patent US10071163B2, “Compositions and methods for selective delivery of oligonucleotide molecules to specific neuron types” (nLife Therapeutics, S.L., priority 2010, dated 2018)

Key:
[1] = test system: serotonin transporter (5-HTT); experiment: [3H]citalopram autoradiographic binding of serotonin transporter after intranasal 5-HTT-NLF-siRNA; format: in vivo, mice; settings: vs vehicle or NLF-nonsense-siRNA, FIG. 15B-C
Description: 24-48. h after NLF-siRNA intranasal administration, mice were killed and their brains were removed and serial coronal sections of 14 μm thickness were obtained at the following AP coordinates, in mm, relative to bregma (Franklin and Paxinos, 1997): 2.2 (prefrontal cortex-PFC), 1.1 to 0.6 (caudate putamen—CPu, lateral and medial septal nucleus—Sep, ventral pallidum—VP), −1.5 to −1.8 (hippocampus—HPC, hypothalamus—Hip) and −4.24 to −4.96 (dorsal raphe nucleus—DR and median raphe nucleus—MnR). Briefly, frozen tissue sections were thawed and dried, preincubated in 50 mM Tris-HCl buffer (pH 7.4 at 25° C.) containing 120 mM NaCl and 5 mM KCl for 15 mm at room temperature. […] After incubation and washing, tissue sections were dipped in distilled ice-cold water and dried rapidly under a cold air stream. Tissues were exposed to tritium-sensitive film together with plastic ^3H-standards for 40 days at 4° C. Quantitative analysis of the autoradiograms was done with AIS computerized image analysis system. By using tissue-calibrated data from the co-exposed radioactive standards, OD values of autoradiograms were transformed to levels of radioactivity bound (nCi/mg tissue protein) to specific brain regions in tissue sections.

[2] = test system: 5-HTT mRNA; experiment: In situ hybridization of 5-HTT mRNA after intranasal 5-HTT-NLF-siRNA; format: in vivo, mice (C57BL/6J)
Method: Twenty-four h after treatment, mice were killed by decapitation and the brains rapidly removed, frozen on dry ice and stored at −20° C. Tissue sections, 14 μm thick, were cut using a microtome-cryostat, thaw-mounted onto APTS (3-aminopropyltriethoxysilane) coated slides and kept at −20° C. until use.
To determine 5-HTT mRNA expression level, in situ hybridization assays were performed using an oligodeoxyribonucleotide probe specific for 5-HIT, complementary to bases 820-863 (Mouse, GenBank Accession Number: NM_010484). The 5-HTT oligonucleotide was individually labeled (2 pmol) at its 3′-end with [^33P]-dATP (>2500 Ci/mmol) using terminal deoxynucleotidyltransferase, purified by centrifugation using QIAquick Nucleotide Removal Kit. The protocols for single label in situ hybridization were based on previously described procedures. Briefly, frozen tissue sections, as described in example 2, were first brought to room temperature, fixed for 20 min at 4° C. in 4% paraformaldehyde in phosphate buffered saline (1×PBS: 8 mM Na2HPO4, 1.4 mM KH2PO4, 136 mM NaCl, 2.6 mM KCl), washed for 5 min in 3×PBS at room temperature, twice for 5 min each in 1×PBS and incubated for 2 min at 21° C. in a solution of pre-digested pronase at a final concentration of 24 U/ml in 50 mM Tris-HCl pH 7.5, 5 mM EDTA. The enzymatic activity was stopped by immersion for 30 s in 2 mg/ml glycine in 1×PBS. […]

5-HTT-NLF-siRNA: 5-HTT-targeted siRNA (SEQ ID NO 14/15) conjugated to a group of formula (I) and one targeting agent (sertraline) (chain 1 GCUAGCUACAACAAGUUCATT; chain 2 UGAACUUGUUGUAGCUAGCTT; further chemistry not given here)
serotonin transporter levels in the different brain areas [1]: reduction of the serotonin transporter levels
5-HTT mRNA level in dorsal (DR) and median (MnR) raphe nuclei ([2]; intranasal 10 and 30 μg, vs vehicle and nonsense-NLF-siRNA, FIG. 15A): reduction of 5-HTT mRNA level
knockdown of 5-HTT mRNA in dorsal raphe nuclei ([2]; intranasal, both doses (10 and 30 μg/mice), three antero-posterior coordinates, FIG. 14A): specific knowdown of 5-HTT mRNA
